Reference: PubChem BioAssay (NCI)
Several values for one entry are separate records, joined by “and”; a condition that tells them apart may be missing. Equal entries are not always repeated.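 Following 48 hours of exposure in 96-well plates, responses at five concentrations were used to interpolate endpoints linearly. At the GI50, growth is halved. TGI: concentration producing complete growth inhibition.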

Key:
Assay in all cases: NCI tumour cell line growth inhibition, 48 h
[1] = test system: A549 NSCLC
[2] = test system: CAKI-1 renal
[3] = test system: COLO 205 colon
[4] = test system: HCT-116 colon
[5] = test system: HT29 colon
[6] = test system: LOX IMVI melanoma
[7] = test system: NCI-H460 lung
[8] = test system: PC-3 prostate
[9] = test system: SK-MEL-28 melanoma
[10] = test system: OVCAR-3 ovarian

SMILES	TGI [1] [µM]	TGI [2]	TGI [3]	TGI [4]	TGI [5]	TGI [6]	TGI [7]	TGI [8]	TGI [9] [µM]	TGI [10]	GI50 [1] [µM]	GI50 [2] [µM]	GI50 [3] [µM]	GI50 [4] [µM]	GI50 [5] [µM]	GI50 [6] [µM]	GI50 [8] [µM]	GI50 [9] [µM]
CN(C)CCN1C(=O)N(CCN(C)C)c2c3cc(O)ccc3nc3c([N+](=O)[O-])ccc1c23	35.5	47.9 µM	23.3 µM	17.1 µM	20.1 µM	24.3 µM	26.4 µM	75 µM	58.5	–	–	–	–	–	–	–	–	–
O=C1CCC(CCc2nc3ccccc3[nH]2)(c2ccccc2)C(=O)N1 (configuration not stated)	> 100	> 100 µM	> 100 µM	> 100 µM	> 100 µM	> 100 µM	> 100 µM	> 100 µM	> 100	> 100 µM	–	–	–	–	–	–	–	–
O=C(/C=C/CC(O)(c1ccccc1)c1ccccc1)Nc1ccccc1Cl	–	> 100 µM	> 100 µM	> 100 µM	> 100 µM	–	> 100 µM	–	> 100	> 100 µM	–	–	–	–	–	–	–	–
C=C1C[C@@H]2CC[C@@]34CC5O[C@H]6C(O[C@H]7CC[C@H](CC(=O)O[C@@H]8[C@@H](C)[C@@H]9O[C@@H]%10C[C@]%11(C[C@@H]%12O[C@]%13(C[C@H](C)[C@@H]%14O[C@@H]%15CC(C(COC(C)=O)OC(C)=O)O[C@@H]%15C[C@@H]%14O%13)C[C@H](C)[C@@H]%12O%11)O[C@@H]%10C[C@@H]9O[C@H]8CC8O[C@@H](CC[C@@H]1O2)C[C@@H](C)C8(O)CO)O[C@@H]7[C@@H]6O3)[C@H]5O4 (some centres not stated)	> 1	> 1 µM	> 1 µM	> 1 µM	–	> 1 µM	> 0.955 µM	> 1 µM	> 1	> 1 µM	–	–	–	–	–	–	–	–
CC1OC2OC3C(OCC(O)C3O)OC(=O)[C@]34CCC(C)(C)CC3C3=CCC5[C@@]6(C)C[C@H](O)[C@H](OC7OC(CO)C(O)C(O)C7OC7OC(COC(=O)CC(C)(O)CC(=O)OC1C(OC1OC(CO)C(O)C(O)C1O)C2O)C(O)C(O)C7O)[C@@](C)(CO)C6CC[C@@]5(C)[C@]3(C)CC4 (some centres not stated)	0.293	17.7 µM	4.52 µM	10.3 µM	3.35 µM	12.1 µM	19.8 µM	6.85 µM	2.58	15.2 µM	–	–	–	–	–	–	–	–
Brc1ccc(/C(N=N/C(=N\Sc2ccccc2)c2ccc(Br)cc2)=N/Sc2ccccc2)cc1	> 100	> 100 µM	> 100 µM	> 100 µM	> 100 µM	> 100 µM	> 100 µM	> 100 µM	> 100	> 100 µM	–	–	–	–	–	–	–	–
C[N+]1(CCCCN2c3ccccc3Sc3cc(N=[N+]=[N-])ccc32)CCN(C(=O)CCNC(=O)Cc2ccc(C(=O)c3ccccc3)cc2)CC1	> 72.6	57.5 µM	34.9 µM	> 75.4 µM	52.6 µM	> 78.1 µM	> 74.2 µM	40.7 µM	46.4	89.2 µM	–	–	–	–	–	–	–	–
CC(C)NC(=O)OCc1c(COC(=O)NC(C)C)n(C)c2c1ccc1cc(Cl)c(Cl)cc12	95.7	12.6 µM	22.8 µM	24 µM	29.3 µM	20.9 µM	16.3 µM	29 µM	–	31.1 µM	–	–	–	–	–	–	–	–
COc1ccc2c(c1)-c1nc(=S)n(CCN(C)C)c3ccc([N+](=O)[O-])c(c13)N2	2.28	7.61 µM	5.97 µM	1.56 µM	2.25 µM	2.29 µM	1.71 µM	4.36 µM	2.88	19.3 µM	–	–	–	–	–	–	–	–
Brc1ccc2[nH]cc(-c3csc(-c4c[nH]c5ccc(Br)cc45)n3)c2c1	7	5.31 µM	3.42 µM	3.26 µM	3.16 µM	3.21 µM	3.43 µM	4.44 µM	5.31	6.95 µM	–	–	–	–	–	–	–	–
CC(=O)Oc1ccc2c(c1)O/C(=C\c1ccc(O)cc1)C2=O	> 100	> 100 µM	> 100 µM	> 100 µM	–	–	> 100 µM	> 100 µM	> 100	> 100 µM	–	–	–	–	–	–	–	–
COc1ccc(C(=O)/C=C/c2ccc(OCCCCCCCCCCOc3ccc(/C=C/C(=O)c4ccc(OC)c(OC)c4)cc3)cc2)c(OC)c1	> 100	> 100 µM	> 100 µM	> 100 µM	> 100 µM	–	> 100 µM	> 100 µM	> 100	–	–	–	–	–	–	–	–	–
Nc1cc2nc(-c3ccccc3)cn2cn1	> 100	> 100 µM	> 100 µM	> 100 µM	> 100 µM	> 100 µM	> 100 µM	> 100 µM	> 100	> 100 µM	–	–	–	–	–	–	–	–
Oc1ccc(C[C@@H]2CN[C@H](Cc3ccc(O)c(Br)c3)CN2)cc1	> 100	> 100 µM	> 100 µM	> 100 µM	> 100 µM	–	–	> 100 µM	> 100	> 100 µM	–	–	–	–	–	–	–	–
O=C(O[C@@H](/C=C/c1ccccc1)P1(=O)N(Cc2ccccc2)[C@@H]2CCCC[C@H]2N1Cc1ccccc1)c1ccccc1	> 100	4.41 µM	4.55 µM	> 100 µM	> 100 µM	11.1 µM	> 100 µM	> 100 µM	> 100	> 100 µM	–	–	–	–	–	–	–	–
N#Cc1ccnc(C(=O)N2CCCC2C(=O)O)c1 (configuration not stated)	> 100	> 100 µM	> 100 µM	> 100 µM	> 100 µM	> 100 µM	> 100 µM	> 100 µM	> 100	> 100 µM	–	–	–	–	–	–	–	–
CSc1ncnc2c1cnn2Cc1cn(COCC(O)CO)nn1 (configuration not stated)	> 100	> 100 µM	> 100 µM	> 100 µM	> 100 µM	> 100 µM	–	> 100 µM	> 100	> 100 µM	–	–	–	–	–	–	–	–
CN1C2CCC1C(CO)C(=O)C2 (configuration not stated)	–	> 100 µM	32.8 µM	–	–	> 100 µM	> 100 µM	> 100 µM	> 100	> 100 µM	–	–	–	–	–	–	–	–
O=C(CCl)Nc1ccc(C(=O)N/N=C/c2ccc(Cl)cc2)cc1	15.2	4.39 µM and 3.35 µM	4.05 µM and 1.44 µM	3.18 µM and 3.7 µM	3.18 µM and 4.61 µM	3.5 µM and 2.91 µM	3.84 µM and 4.23 µM	3.53 µM and 21.9 µM	16.8	3.42 µM and 3.6 µM	3.96	1.87	2.01	1.57	2.25	1.72	10.1	3.59
CCOC(=O)C(NC(=O)CC)(Nc1ccccc1F)C(F)(F)F (configuration not stated)	> 100	> 100 µM	> 100 µM	> 100 µM	> 100 µM	> 100 µM	> 100 µM	> 100 µM	> 100	> 100 µM	–	–	–	–	–	–	–	–
